Test results as given in patent publication US20080108067A1, “Cloning of the retinoic acid inducible gene-1 promoter and uses thereof” (priority 2004, published 2008).

Test system: human RIG-1 promoter (RIG-PROM-LUC reporter)
Experiment: RIG-PROM-LUC luciferase reporter activity in response to inducers in transfected human cells
Assay type: cell-based

CC1=C(/C=C/C(C)=C/C=C/C(C)=C/C(=O)O)C(C)(C)CCC1 [retinoic acid, all Trans-retinoic acid]
activation of promoter activity (RIG-PROM-LUC) (FM516 and HeLa cells, IFN-β induction greater than PolyIC:PolyIC and least with retinoic acid, FIG. 2): robust activation | response of reporter compared to untreated controls (depending on the cell line (FM516, T47D, HeLa, PHFA), inducer 6 h then overnight incubation): around 1.5 fold
